From US20250170098A1, “MOLECULAR JACKHAMMER FOR MECHANICAL DESTRUCTION OF CELLULAR STRUCTURE” (William Marsh Rice University, priority 2022, published 2025)

Columns and labels:
B16-F10 melanoma tumors = assay: Treatment of B16-F10 melanoma tumors in C57BL/6 mice; format: in vivo, mouse
Method: Injection of B16-F10 cells subcutaneously in C57BL/6J mice to generate the melanoma tumors. The B16-F10 cells were cultured as described before. Cells were harvested from sub-confluent plates, ˜90%, and fresh media was added to the cells the day before harvesting. The cells were harvested using 0.05% trypsin-EDTA (Gibco, 25-300-054). The harvested cells were re-dispersed in DMEM media without supplements at 1×10^6 cells mL^−1. The cell suspension was kept in ice. Then 100 μL of cells were injected per mouse (this was 100,000 cells per mouse) subcutaneously in the right flank of a 7-8-week-old female mouse (C57BL/6J), in which the hair in the right flank was previously depilated using a shaver. […] Starting at day 12 the tumors were measured using a caliper. […] The volume of the tumor was calculated as: (½)×length×width×height. When the height was not possible to measure in the case of the tumors which were too small (usually <100 mm^3), then the tumor volume was calculated as: (½)×length×width^2. […]
Treatment of B16-F10 tumors with Cy7.5-amine and NIR 730 nm light. […] The light intensity was measured using an Optical Power Meter from Thorlabs, sensor model S302C and console model PM100D. While under light treatment the temperature at the tumor area was measured using an IR thermal camera (Model: Compact Seek Thermal for Android. Seek Thermal, Inc. Santa Barbara, CA). […]

A375 cells = assay: Clonogenic assay; format: cell-based, human
Method: The clonogenic assay was conducted to confirm that cancer cells treated by plasmon-driven MJH are indeed death upon NIR-light activation (FIG. 18). Three molecules were analyzed: the most VDA active BL-204, medium active BL-141-2 and low active Cy7-amine. […] This was accomplished by incubating the MJH molecules with the A375 cells for 50 min and immediately activate the plasmon-driven MJH using 730 nm NIR-light at 80 mW/cm^2 for 10 min. This is considered a short contact time between the MJH and the A375 cells.
Clonogenic assay. A375 cells were seeded in 35 mm cell culture dishes at predetermined densities to allow for an approximately equal number of resultant colonies. The next day, cells were treated with Cy7.5-amine at variable concentration and with or without 730 nm light at 80 mWcm^−2 for 10 min. The cells were incubated with Cy7.5-amine for 50 min before the illumination, the media was replaced with fresh media after the illumination and cells were cultured for 6 days to allow for colony formation. Cells were then washed once with PBS and fixed-stained in a 0.5% (w/v) crystal violet in methanol/water solution (1:1) during 10 min. The excess of crystal violet was washed off with water, the plates were dried at room temperature and then the colonies were counted using ImageJ software version 1.52a, and the survival fraction was determined. All treatments were in triplicate.

## CN1/C(=C\C=C2C=C(/C=C/C3=[N+](CCCCCC(=O)NCCCCCCN)c4ccc5ccccc5c4C3(C)C)CCC\2)C(C)(C)c2c1ccc1ccccc21 [Cy7.5-amine]
B16-F10 melanoma tumors; 8 μg in 50 μL PBS intratumorally, 730 nm LED at for 5 min
  size of the B16-F10 tumors: significantly reduced
B16-F10 melanoma tumors; Cy7.5-amine with light, for 5 min
  temperature increase of B16-F10 tumors under light treatment: ~5 °C
A375 cells; 0.5 μM, 10 min 730 nm light at 80 mWcm^−2
  cells eradicated, clonogenic assay: 100%
A375 cells; 1 μM + light (80 mWcm^−2 of 730 nm for 10 min)
  eradication of A375 cells, clonogenic assay (in words): complete eradication
